From the supplement of paper PMC11281043

Assays:
Conditions in all cases: exposure: 6-8 hpf to 5 dpf, scored at 6 dpf
Danio rerio embryo/larva [1] = assay: max % larvae with pigmentation defects across tested concentrations; higher = more toxic
Danio rerio embryo/larva [2] = assay: max % larvae with edema across tested concentrations; higher = more toxic; extreme values may be limits of the assay
Danio rerio embryo/larva [3] = assay: max % larvae with tail defects across tested concentrations; higher = more toxic; extreme values may be limits of the assay
Danio rerio embryo/larva [4] = assay: max % larvae with blood pooling across tested concentrations; higher = more toxic; extreme values may be limits of the assay
Danio rerio embryo/larva [5] = assay: max % larvae generally abnormal across tested concentrations; higher = more toxic; extreme values may be limits of the assay
Danio rerio embryo/larva [6] = assay: max % larvae with spinal defects across tested concentrations; higher = more toxic; extreme values may be limits of the assay
Danio rerio embryo/larva [7] = assay: max % larvae with abnormal position across tested concentrations; higher = more toxic; extreme values may be limits of the assay
Danio rerio embryo/larva [8] = assay: max % larvae with craniofacial defects across tested concentrations; higher = more toxic; extreme values may be limits of the assay
Danio rerio embryo/larva [9] = assay: max % larvae with uninflated swim bladder across tested concentrations; higher = more toxic; extreme values may be limits of the assay
Danio rerio embryo/larva [10] = assay: max % larvae unhatched across tested concentrations; max tested concentration (log10 uM): 2; higher = more toxic
Danio rerio embryo/larva [11] = assay: max % larvae with any abnormality across tested concentrations; max tested concentration (log10 uM): 2; higher = more toxic; extreme values may be limits of the assay

Structure (SMILES) | max % larvae (Danio rerio embryo/larva [1]) [%] | max % larvae (Danio rerio embryo/larva [2]) [%] | max % larvae (Danio rerio embryo/larva [3]) [%] | max % larvae (Danio rerio embryo/larva [4]) [%] | max % larvae generally abnormal across tested concentrations (Danio rerio embryo/larva [5]) [%] | max % larvae (Danio rerio embryo/larva [6]) [%] | max % larvae (Danio rerio embryo/larva [7]) [%] | max % larvae (Danio rerio embryo/larva [8]) [%] | max % larvae (Danio rerio embryo/larva [9]) [%] | max % larvae unhatched across tested concentrations (Danio rerio embryo/larva [10]) [%] | max % larvae (Danio rerio embryo/larva [11]) [%]
C=CC(=O)OCCC(F)(F)C(F)(F)C(F)(F)C(F)(F)C(F)(F)C(F)(F)C(F)(F)C(F)(F)F [2-(Perfluorooctyl)ethyl acrylate] (max tested concentration (log10 uM): 2) | 0 | 0 | 0 | 0 | 0 | 0 | 0 | 0 | 0 | – | –
O=C(O)CCC(F)(C(F)(F)F)C(F)(F)F [4,4-bis(Trifluoromethyl)-4-fluoropropanoic acid] (max tested concentration (log10 uM): 2) | 0 | 0 | 0 | 0 | 0 | 0 | 0 | 0 | 0 | – | –
O=C(O)C(F)(F)C(F)(F)C(F)(F)C(F)(F)C(F)(F)C(F)(F)C(F)(F)F [Sodium perfluorooctanoate] (max tested concentration (log10 uM): 2) | 0 | 0 | 0 | 0 | 0 | 0 | 0 | 0 | 0 | – | –
FC(F)(Br)C(F)(F)C(F)(F)C(F)(F)C(F)(F)C(F)(F)Br [1,6-Dibromododecafluorohexane] (max tested concentration (log10 uM): 2) | 0 | 4.17 | 0 | 0 | 4.17 | 0 | 0 | 0 | 0 | – | –
O=C(O)C(F)(F)C(F)(F)C(F)(F)C(F)(F)C(F)(F)C(F)(F)C(F)(F)C(F)(F)C(F)(F)C(F)(F)C(F)(F)C(F)(F)F [Perfluorotridecanoic acid] (max tested concentration (log10 uM): 1.30103) | 0 | 16.7 | 0 | 16.7 | 16.7 | 0 | 8.33 | 16.7 | 16.7 | – | –
C=C(C)C(=O)OCCC(F)(F)C(F)(F)C(F)(F)C(F)(F)C(F)(C(F)(F)F)C(F)(F)F [(Perfluoro-5-methylhexyl)ethyl 2-methylprop-2-enoate] (max tested concentration (log10 uM): 2) | 0 | 0 | 0 | 0 | 0 | 0 | 0 | 0 | 0 | – | –
O=S(=O)(OCC(F)(F)F)C(F)(F)C(F)(F)C(F)(F)C(F)(F)F [2,2,2-Trifluoroethyl perfluorobutanesulfonate] (max tested concentration (log10 uM): 2) | 0 | 54.5 | 4.55 | 31.8 | – | 0 | 11.4 | 9.09 | 90.9 | – | –
O=C(O)CCC(F)(F)C(F)(F)C(F)(F)F [3:3 Fluorotelomer carboxylic acid] (max tested concentration (log10 uM): 2) | 0 | 17.5 | 2.5 | 10 | – | 0 | 7.5 | 10 | 20 | – | –
O=S(=O)(O)C(F)(F)C(F)(F)C(F)(F)C(F)(F)C(F)(F)C(F)(F)F [Perfluorohexanesulfonic acid] (max tested concentration (log10 uM): 2) | 0 | 31.2 | 0 | 25 | – | 3.12 | 31.2 | 50 | 100 | – | –
O=S(=O)(Cl)C(F)(F)C(F)(F)C(F)(F)C(F)(F)C(F)(F)C(F)(F)C(F)(F)C(F)(F)F [Perfluoro-1-octanesulfonyl chloride] (max tested concentration (log10 uM): 2) | 0 | 100 | 100 | 0 | – | 25 | 25 | 100 | 100 | – | –
O=P(O)(O)CCC(F)(F)C(F)(F)C(F)(F)C(F)(F)C(F)(F)C(F)(F)F [2-(Perfluorohexyl)ethylphosphonic acid] (max tested concentration (log10 uM): 2) | 0 | 60 | 0 | 0 | – | 0 | 10 | 20 | 40 | – | –
O=S(=O)(O)C(F)(F)C(F)(F)C(F)(F)C(F)(F)C(F)(F)C(F)(F)C(F)(F)C(F)(F)F [Potassium perfluorooctanesulfonate] (max tested concentration (log10 uM): 2) | 0 | 100 | 100 | 33.3 | – | 50 | 50 | 100 | 100 | – | –
OCCCCC(F)(F)C(F)(F)C(F)(F)C(F)(F)F [4:4 Fluorotelomer alcohol] (max tested concentration (log10 uM): 2) | 0 | 93.8 | 15.6 | 0 | – | 0 | 18.8 | 81.2 | 93.8 | – | –
OCC(F)(F)OC(F)(F)C(F)(F)OC(F)(F)C(F)(F)OC(F)(F)CO [1H,1H,11H,11H-Perfluorotetraethylene glycol] | – | – | – | – | – | – | – | – | – | 0 | 100
FC(F)C(F)(F)COCC1CO1 (centres undefined) [((2,2,3,3-Tetrafluoropropoxy)methyl)oxirane] (max tested concentration (log10 uM): 2) | 0 | 31.2 | 0 | 0 | – | 0 | 8.33 | 16.7 | 91.7 | – | –
O=C(O)C(F)(F)C(F)(F)C(F)(F)C(F)(F)C(F)(F)C(F)(F)C(F)(F)F [Ammonium perfluorooctanoate] | – | – | – | – | – | – | – | – | – | 0 | 16.7
O=C(O)C(F)(F)C(F)(F)C(F)(F)C(F)(F)C(F)(F)C(F)(F)C(F)(F)F [Ammonium perfluorooctanoate] (max tested concentration (log10 uM): 2) | 0 | 0 | 0 | 0 | – | 0 | 0 | 0 | 9.09 | – | –

Structure (SMILES) | max % larvae (Danio rerio embryo/larva [1]) [%] | max % larvae (Danio rerio embryo/larva [2]) [%] | max % larvae (Danio rerio embryo/larva [3]) [%] | max % larvae (Danio rerio embryo/larva [4]) [%] | max % larvae generally abnormal across tested concentrations (Danio rerio embryo/larva [5]) [%] | max % larvae (Danio rerio embryo/larva [6]) [%] | max % larvae (Danio rerio embryo/larva [7]) [%] | max % larvae (Danio rerio embryo/larva [8]) [%] | max % larvae (Danio rerio embryo/larva [9]) [%] | max % larvae unhatched across tested concentrations (Danio rerio embryo/larva [10]) [%] | max % larvae (Danio rerio embryo/larva [11]) [%]
O=C(O)C(F)(F)C(F)(F)C(F)(F)C(F)(F)C(F)(F)C(F)(F)C(F)(F)F [Perfluorooctanoic acid] | – | – | – | – | – | – | – | – | – | 0 | 16.7
Cc1ccc(S(=O)(=O)OCC(F)(F)C(F)(F)C(F)(F)C(F)(F)C(F)(F)C(F)F)cc1 [1H,1H,7H-Perfluoroheptyl 4-methylbenzenesulfonate] (max tested concentration (log10 uM): 2) | 0 | 16.7 | 0 | 0 | – | 4.17 | 4.17 | 16.7 | 75 | – | –
O=S(=O)(O)C(F)(F)C(F)(F)C(F)(F)C(F)(F)C(F)(F)C(F)(F)C(F)(F)F [Perfluoroheptanesulfonic acid] (max tested concentration (log10 uM): 1.90309) | 16.7 | 91.7 | 37.5 | 50 | – | 8.33 | 50 | 100 | 100 | – | –
OCC(F)(F)C(F)(F)C(F)(F)C(F)(F)C(F)(F)C(F)(F)F [6:1 Fluorotelomer alcohol] (max tested concentration (log10 uM): 2) | 0 | 25 | 12.5 | 16.7 | – | 12.5 | 4.17 | 25 | 25 | – | –
O=C(O)C(F)(F)C(F)(F)C(F)(F)C(F)(F)C(F)(F)C(F)(F)C(F)(F)F [Potassium perfluorooctanoate] (max tested concentration (log10 uM): 2) | 0 | 9.09 | 2.27 | 9.09 | – | 0 | 2.27 | 9.09 | 9.09 | – | –
O=C(O)C(F)(F)C(F)(F)OC(F)(F)F [Perfluoro-3-methoxypropanoic acid] (max tested concentration (log10 uM): 2) | 0 | 8.33 | 0 | 16.7 | – | 0 | 0 | 0 | 0 | – | –
O=S(=O)(O)CCC(F)(F)C(F)(F)C(F)(F)C(F)(F)C(F)(F)C(F)(F)F [6:2 Fluorotelomer sulfonic acid] (max tested concentration (log10 uM): 2) | 0 | 4.17 | 0 | 0 | – | 0 | 4.17 | 0 | 0 | – | –
O=C(O)C=C(C(F)(F)F)C(F)(F)F [3,3-Bis(trifluoromethyl)-2-propenoic acid] (max tested concentration (log10 uM): 2) | 0 | 2.08 | 0 | 0 | – | 0 | 0 | 0 | 0 | – | –
FC(F)(F)C(F)(F)C(F)(F)CC1CO1 (centres undefined) [1H,1H-Heptafluorobutyl epoxide] (max tested concentration (log10 uM): 2) | 0 | 9.09 | 9.09 | 9.09 | – | 0 | 0 | 9.09 | 9.09 | – | –
NC(=O)C(F)(F)C(F)(F)C(F)(F)F [Heptafluorobutyramide] (max tested concentration (log10 uM): 2) | 0 | 8.33 | 0 | 0 | – | 0 | 0 | 0 | 10 | – | –
O=C(O)C(F)(F)C(F)(F)C(F)(F)C(F)(F)C(F)(F)C(F)(F)F [Perfluoroheptanoic acid] | – | – | – | – | – | – | – | – | – | 0 | 16.7
C=CC(=O)OCC(F)(F)C(F)(F)C(F)(F)C(F)(F)C(F)(F)C(F)(F)C(F)(F)C(F)F [1H,1H,9H-Perfluorononyl acrylate] | – | – | – | – | – | – | – | – | – | 0 | 16.7
C=C(C)C(=O)OCC(F)(F)C(F)(F)C(F)(F)F [(Perfluoropropyl)methyl methacrylate] (max tested concentration (log10 uM): 2) | 4.17 | 8.33 | 4.17 | 0 | – | 0 | 4.17 | 8.33 | 8.33 | – | –
FC(F)(F)C(F)(F)CNCC(F)(F)C(F)(F)F [Bis(1H,1H-perfluoropropyl)amine] (max tested concentration (log10 uM): 2) | 0 | – | 0 | 0 | – | 0 | 0 | 0 | 16.7 | – | –
O=C(O)C(F)(F)C(F)(F)C(=O)O [Perfluorobutanedioic acid] (max tested concentration (log10 uM): 2) | 0 | 8.33 | 0 | 8.33 | – | 0 | 4.17 | 0 | 0 | – | –
FC(F)(F)C(F)(F)C(F)(F)C(F)(F)C(F)(F)C(F)(F)C(F)(F)I [1-Iodopentadecafluoroheptane] (max tested concentration (log10 uM): 2) | 0 | 30 | 0 | 16.7 | – | 8.33 | 10.4 | 10 | 80 | – | –
